Experimental data: publication PMC5566973 (Frontiers in Pharmacology, 2017)

Tests used:
[1] = Metabolic stability in human liver microsomes; conditions: for residual percentage: human liver microsomes 0.5 mg protein/mL, 2 μM, after incubation; for half-life at 2 μM / microsomal CLint at 2 μM: human, liver microsomes
[2] = Cytotoxicity CCK-8 assay in Caco-2 cells; assay type: cell-based, human; conditions: human, Caco-2 cells, 12 h incubation, read-out: Cell viability
Experimental: (§1) In brief, the cells were seeded on 96-well plates at 1 × 10^5 cells/mL and cultured in 100 μL of culture medium at incubator for 24 h. […] After 12 h incubation, 10 μL of CCK-8 dye was added to each well, and cells were incubated for another 2 h. Cell viability (%) was calculated using the following Equation (1):
(§2) (1) Cell viability (%)=(ODsample−ODblank)/ (ODcontrol−ODblank) ×100%
(§3) ODsample refers to the absorbance of a well with treated cells and CCK-8. ODblank refers to the absorbance of a well with medium and CCK-8 but without cells. ODcontrol refers to the absorbance of a well with untreated cells and CCK-8. The absorbance at 450 nm was measured by a microplate reader (Biotek Instrument; Gene Co., Ltd., VT, USA), and the results are presented as mean ± SD from triplicate wells.

Caco-2 cells = assay: Cytotoxicity CCK-8 assay in Caco-2 cells; assay type: cell-based, human; conditions: Caco-2, CCK-8
Experimental: as §1, §2, §3

[3] = rats, oral total alkaloid extracts from P. harmala 140 mg/kg; ref Zhang, 2013; Shi et al., 2014; cited from earlier work
[4] = Cytotoxicity CCK-8 assay in MDCK cells; assay type: cell-based, canine; conditions: dog, MDCK cells, 12 h incubation, read-out: Cell viability
Experimental: as §1, §2, §3

MDCK cells = assay: Cytotoxicity CCK-8 assay in MDCK cells; assay type: cell-based, canine; conditions: CCK-8
Experimental: as §1, §2, §3

Caco-2 cell monolayers = conditions: Caco-2 monolayers, 250–500 μM; ref Khan et al., 2004; cited from earlier work
[5] = Bidirectional transport in MDCK cell monolayers with selective transporter inhibitors or substrates; assay type: in vitro ADME, canine; conditions: dog, Control (no inhibitor or substrate), read-out: ER
Experimental: (§4) Caco-2, MDCK and MDCK-MRP2 cells were donated by Prof. Yan Xie and Yueming Ma from Shanghai University of Traditional Chinese Medicine. The cells were grown in culture dishes (Corning® Costar, Cambridge, MA, USA) using DMEM supplemented with 10% FBS, 1% NEAA and 1% penicillin-streptomycin solution. The cells were cultured in 5% CO2 and […] with 90% relative humidity at 37°C. The medium was replaced every other day during incubation. The cells were passaged every 3–4 days between 70 and 80% confluence at a 1:5 split ratio using 0.25% trypsin-EDTA. For the transport experiments, the cells from passages between 30 and 45 were seeded at 1 × 10^5 cells/cm^2 onto permeable polycarbonate inserts (0.45 μm pore size, seeding surface of 0.6 cm^2, Millipore, MA, USA) in 24-well plastic plates. The media in the culture plates were changed every other day for the first week after seeding and were replaced daily afterward. […] The cells were used for the transport experiments 21–28 (Caco-2) or 5–7 (MDCK and MDCK-MRP2) days after seeding, and only monolayers with a TEER-value above 420 Ω cm^2 were used during the studies.
(§5) The apical (AP) and basolateral (BL) sides are typical of polarized Caco-2, MDCK and MDCK-MRP2 epithelial cells. Before the experiments, the polarized cell monolayers were washed twice with warm HBSS solution and subsequently preincubated (37°C, 30 min). Afterward, HBSS solution on both sides of the cell monolayers was removed using a mini desktop vacuum pump. […] The final DMSO concentration in the HBSS or drug mixture was below 0.5%. The monolayers were incubated at 37°C, and 100 μL samples were taken at 30, 60, 90, and 120 min from the acceptor compartment and immediately replaced with the same volume of prewarmed fresh blank HBSS. TEER measurements for assessing the membrane integrity took place before and after the experiments.
(§6) The apparent permeability coefficients (Papp) and ER were calculated as Equations (2) and (3): […]
(§7) where dQ/dt is the steady-state flux, A is the membrane surface area, and C0 is the initial drug concentration in the donor compartment. PappBA is the Papp-value measured in BL to AP direction and PappAB is the Papp-value measured in AP to BL direction. It indicated the involvement of an active transport process when the ER-value is above 1.5 (Hubatsch et al., [2007]).

MCTs = assay: as above; assay type: in vitro ADME, canine; conditions: dog, with phloretin 0.3 mM, + Phloretin 0.3 mM (MCTs)
Experimental: as §4, §5, §6, §7

PEPT1 = assay: as above; assay type: in vitro ADME, canine; conditions: dog, with Gly-Sar 10 mM, + Gly-Sar 10 mM (PEPT1)
Experimental: as §4, §5, §6, §7

OATPs = assay: as above; assay type: in vitro ADME, canine; conditions: dog, with ES 0.05 mM (50 μM), + ES 0.05 mM (OATPs)
Experimental: as §4, §5, §6, §7

For `COc1ccc2c(c1)[nH]c1c(C)nccc12` [Harmine], the residual percentage [1] was 54.25%, the half-life at 2 μM [1] was 1.65 h and the microsomal CLint at 2 μM [1] was 14 µL/min/mg. The viability at 12 h ([2]; Caco-2, up to 5 μM) was greater than 90%, the “concentration without toxicity or decreased cell viability” value (Caco-2 cells) was “up to 5 μM” and the “drug concentration producing notable toxicity” value (Caco-2 cells) was greater than 25 µM. The “F-value (absolute bioavailability)” value [3] was 4.96%, the viability at 12 h ([4]; up to 5 μM) was greater than 90% and the “concentration without toxicity or decreased cell viability” value (MDCK cells) was “up to 5 μM”. For the same molecule, the “drug concentration producing notable toxicity” value (MDCK cells) was greater than 25 µM.

Work on `COc1ccc2c3c([nH]c2c1)C(C)=NCC3` [Harmaline] yielded a residual percentage [1] of 64.16%, a half-life at 2 μM [1] of 2.46 h and a microsomal CLint at 2 μM [1] of 9.4 µL/min/mg. The “efflux ratios (ER)” value (Caco-2 cell monolayers) was less than 1.0, the efflux ratio at 120 min, 2 μM [5] was 1.03 and the Papp B→A at 120 min, 2 μM (MCTs) was 23.3 ± 1.4 ×10⁻⁶ cm/s. The efflux ratio at 120 min, 2 μM (MCTs; read-out: ER) was 1.15, the Papp A→B at 120 min, 2 μM (PEPT1) was 20.9 ± 2.9 ×10⁻⁶ cm/s and the Papp B→A at 120 min, 2 μM (PEPT1) was 21.4 ± 1.96 ×10⁻⁶ cm/s. For the same molecule, the efflux ratio at 120 min, 2 μM (PEPT1; read-out: ER) was 1.03, the Papp A→B at 120 min, 2 μM (OATPs) was 19.4 ± 3.23 ×10⁻⁶ cm/s and the efflux ratio at 120 min, 2 μM (OATPs; read-out: ER) was 1.07. The viability at 12 h ([2]; Caco-2, up to 25 μM) was greater than 90%, the “concentration without toxicity or decreased cell viability” value (Caco-2 cells) was “up to 25 μM” and the “drug concentration producing notable toxicity” value (Caco-2 cells) was “higher than 100 μM”. The “F-value (absolute bioavailability)” value [3] was 63.22%, the viability at 12 h ([4]; up to 25 μM) was greater than 90% and the “concentration without toxicity or decreased cell viability” value (MDCK cells) was “up to 25 μM”. For the same molecule, the “drug concentration producing notable toxicity” value (MDCK cells) was “higher than 100 μM”.
